In patent publication US20250368666A1, “INDAZOLE COMPOUNDS” (TYRA BIOSCIENCES, INC., priority 2022, published 2025):
pIC50: −log10 of the molar value. Read-outs that look alike come from different tables or passages of the source.

What was measured:
FGFR2 = target: T1, FGFR2 (Homo sapiens, UniProt P21802); assay: Kinase binding assay (kinase-tagged T7 phage, affinity beads, qPCR), Kd; conditions: read-out: FGFR2 (Kd nM)
T1 construct: made in house; host or cells: E. coli (BL21-derived), T7 phage
T1 sequence (P21802 22-821): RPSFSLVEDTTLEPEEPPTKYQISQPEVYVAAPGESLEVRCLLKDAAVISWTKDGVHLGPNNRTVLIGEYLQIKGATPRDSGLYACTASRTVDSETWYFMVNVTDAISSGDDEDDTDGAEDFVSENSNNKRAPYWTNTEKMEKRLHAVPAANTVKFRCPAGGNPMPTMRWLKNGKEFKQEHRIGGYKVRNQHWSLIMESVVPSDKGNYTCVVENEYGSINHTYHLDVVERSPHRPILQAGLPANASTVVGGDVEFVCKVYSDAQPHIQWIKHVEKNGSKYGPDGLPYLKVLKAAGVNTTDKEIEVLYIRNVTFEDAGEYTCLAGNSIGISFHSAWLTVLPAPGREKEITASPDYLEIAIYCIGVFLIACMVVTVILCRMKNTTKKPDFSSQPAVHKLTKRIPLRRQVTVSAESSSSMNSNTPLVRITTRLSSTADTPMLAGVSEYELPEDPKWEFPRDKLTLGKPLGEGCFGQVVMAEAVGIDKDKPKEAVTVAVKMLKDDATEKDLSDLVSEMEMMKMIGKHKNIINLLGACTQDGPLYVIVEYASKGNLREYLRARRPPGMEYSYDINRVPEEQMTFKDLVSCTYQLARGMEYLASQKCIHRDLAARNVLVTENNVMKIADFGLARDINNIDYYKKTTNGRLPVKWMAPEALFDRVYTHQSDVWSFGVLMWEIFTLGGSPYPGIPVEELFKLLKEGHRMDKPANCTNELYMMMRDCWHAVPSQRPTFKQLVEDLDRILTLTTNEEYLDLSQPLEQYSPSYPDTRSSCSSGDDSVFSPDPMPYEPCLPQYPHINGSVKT
Method in brief: (§1)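 First, phage lysates carrying tagged kinase are made in E. coli at 32° C. Next, they are combined with blocked biotin-ligand streptavidin beads and compound at 0.9% final DMSO. Finally, eluted kinase is measured by qPCR and Kd is fitted with the Hill equation.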

[1] = system: KATO-III cell line (FGFR2 amplification); assay: Cancer cell line cell viability assay (Cell Titer-Glo), 72 hr; format: cell-based; conditions: Homo sapiens, KATO III
Description: (§2) Experimental Purpose: To detect the change of intracellular ATP by Cell Titer-Glo® and to evaluate the inhibitory effect of the compounds on cancer cell lines by determining the in vitro IC50 value of the compounds.
(§3) Cell Titer-Glo® 2.0 Luminescent cell viability assay reagent was purchased from Promega (Madison, WI). KG-1, KATO-III, and MDA-MB-453 cell lines were purchased from American Type Culture Collection (Manassas, VA). RT112/84 cell line was purchased from Millipore-Sigma (St. Louis, MO). HuH7 cells were purchased from Seikisui Xenotech (Kansas City, KS). RT112/84 and MDA-MB-453 cells were cultured in RPMI1640 media supplemented with 10% fetal bovine serum. KG-1 and KATO-III cell lines were cultured in IMDM media supplemented with 20% FBS. HuH7 cells were cultured in IMDM media supplemented with 10% FBS. Cultures were maintained at 37° C. in a humidified atmosphere of 5% CO2 and 95% air.
(§4) Cell Viability Assay Procedure: Cells were plated in 96-well clear bottom/white plates (Corning #3903) at a range of densities depending on the optimal assay window (5,000-20,000 cells/well in […] of media), incubated overnight. The next day, test compound DMSO stock solutions were made at 10 mM and […] final concentration. Compounds were then added to cells in a 9-dose, 4-fold dilution series starting at 3 μM with an HP 300e Digital Dispenser (each dose was applied in triplicate). DMSO was backfilled to each well up to 301 nL total volume of test compound+DMSO, and a total of 301 nL DMSO was added to a control/no test compound well in triplicate. The cells in cell culture plates were incubated with the compounds at 37° C. and 5% CO2 for 72 hours-120 hours depending on the cell line. Then 50 μl of Cell Titer Glo 2.0 reagent was added to each well of the cell culture plates. The contents were covered from light and mixed on an orbital shaker at room temperature for minimum of 10 min. Luminescence was recorded by a Clariostar Plus Microplate Reader (BMG Labtech, Cary, NC). Cells were assessed as a percentage of DMSO only treated control cells. Curves were plotted and IC50 values were calculated using the GraphPad Prism 9 program based on a sigmoidal dose-response equation (log (inhibitor) vs. response—Variable slope, 4-parameter).

[2] = system: KG-1 cell line (FGFR 1-fusion); assay: as above; format: cell-based; conditions: Homo sapiens, KG-1, KG-1 cell line (FGFR1-fusion)
Description: as §2, §3, §4

[3] = system: RT112/84 cell line (FGFR3-fusion); assay: as above; format: cell-based; conditions: Homo sapiens, RT112/84, RT112/84 cell line (FGFR3-fusion)
Description: as §2, §3, §4

FGFR3 = target: T2, FGFR3 (Homo sapiens, UniProt P22607); assay: Kinase binding assay (kinase-tagged T7 phage, affinity beads, qPCR), Kd; conditions: read-out: FGFR3 (Kd nM)
T2 construct: made in house; host or cells: E. coli (BL21-derived), T7 phage
T2 sequence (P22607 23-806): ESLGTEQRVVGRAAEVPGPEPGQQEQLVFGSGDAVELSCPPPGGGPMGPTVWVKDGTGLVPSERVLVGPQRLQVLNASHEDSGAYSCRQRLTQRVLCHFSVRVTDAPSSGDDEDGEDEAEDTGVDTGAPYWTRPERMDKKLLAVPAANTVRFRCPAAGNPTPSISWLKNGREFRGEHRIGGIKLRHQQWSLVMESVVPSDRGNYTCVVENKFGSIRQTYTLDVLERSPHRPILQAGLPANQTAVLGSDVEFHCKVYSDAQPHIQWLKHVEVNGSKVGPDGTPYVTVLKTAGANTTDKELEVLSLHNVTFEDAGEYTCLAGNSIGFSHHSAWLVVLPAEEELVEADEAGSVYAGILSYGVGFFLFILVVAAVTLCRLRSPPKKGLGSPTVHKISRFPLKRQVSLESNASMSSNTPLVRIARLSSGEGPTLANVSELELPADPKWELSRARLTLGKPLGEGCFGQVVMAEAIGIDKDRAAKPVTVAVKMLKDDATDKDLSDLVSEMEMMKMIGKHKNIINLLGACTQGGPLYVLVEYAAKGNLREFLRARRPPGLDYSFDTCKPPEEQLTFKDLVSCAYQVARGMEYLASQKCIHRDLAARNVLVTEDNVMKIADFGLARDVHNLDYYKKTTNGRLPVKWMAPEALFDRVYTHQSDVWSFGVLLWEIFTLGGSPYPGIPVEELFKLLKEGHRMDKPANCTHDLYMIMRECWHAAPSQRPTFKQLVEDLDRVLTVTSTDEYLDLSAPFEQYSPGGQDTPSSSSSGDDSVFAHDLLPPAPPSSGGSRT
Method in brief: as §1

FGFR1 = target: T3, FGFR1 (Homo sapiens, UniProt P11362); assay: as above; conditions: read-out: FGFR1 (Kd nM)
T3 construct: made in house; host or cells: E. coli (BL21-derived), T7 phage
T3 sequence (P11362 22-822): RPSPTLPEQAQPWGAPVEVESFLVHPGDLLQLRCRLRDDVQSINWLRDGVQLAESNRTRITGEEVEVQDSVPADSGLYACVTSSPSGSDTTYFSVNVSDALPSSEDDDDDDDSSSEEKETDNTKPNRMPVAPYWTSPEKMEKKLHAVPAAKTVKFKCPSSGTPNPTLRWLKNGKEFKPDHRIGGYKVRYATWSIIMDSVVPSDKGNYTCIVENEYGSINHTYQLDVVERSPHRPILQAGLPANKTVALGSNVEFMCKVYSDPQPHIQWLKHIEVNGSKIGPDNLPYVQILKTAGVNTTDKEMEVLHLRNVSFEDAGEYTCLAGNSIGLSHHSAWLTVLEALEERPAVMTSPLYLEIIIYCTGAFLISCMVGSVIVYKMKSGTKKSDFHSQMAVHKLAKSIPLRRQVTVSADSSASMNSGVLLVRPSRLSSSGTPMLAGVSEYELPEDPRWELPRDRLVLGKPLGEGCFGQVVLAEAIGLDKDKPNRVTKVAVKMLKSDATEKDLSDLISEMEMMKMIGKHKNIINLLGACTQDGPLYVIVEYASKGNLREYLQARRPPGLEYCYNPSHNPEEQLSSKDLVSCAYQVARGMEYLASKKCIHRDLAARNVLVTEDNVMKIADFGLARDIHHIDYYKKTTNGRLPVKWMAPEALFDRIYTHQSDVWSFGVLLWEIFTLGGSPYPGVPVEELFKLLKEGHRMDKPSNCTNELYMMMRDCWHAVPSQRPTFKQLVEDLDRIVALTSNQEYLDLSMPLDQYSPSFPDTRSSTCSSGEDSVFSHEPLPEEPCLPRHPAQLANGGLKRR
Method in brief: as §1

[4] = kinase binding assay, 11-point 3-fold dilution series

Kd (FGFR2) [nM] | pIC50 [1] | pIC50 [2] | pIC50 [3] | Kd (FGFR3) [nM] | Kd (FGFR1) [nM] | Kd (FGFR3; [4]) [nM] | Kd (FGFR1; [4]) [nM] | SMILES
1 to 50 | < 6.00 | 6.00 to 6.70 | 7.30 to 10.00 | – | – | – | – | COc1cc2[nH]nc(-c3cnc(N4CC5(CC5)C4)c(C#N)c3)c2cc1O[C@H](C)c1c(Cl)cncc1Cl [Example 65, 2-(5-azaspiro[2.3]hexan-5-yl)-5-[5-[(1R)-1-(3,5-dichloro-4-pyridyl)ethoxy]-6-methoxy-1H-indazol-3-yl]pyridine-3-carbonitrile]
– | 7.30 to 10.00 | 6.70 to 7.30 | 7.30 to 10.00 | 1 to 50 | 1 to 50 | – | – | C[C@@H](Oc1ccc2[nH]nc(-c3ccc(N4CC(C)(NCC5CC5)C4)nn3)c2c1)c1c(Cl)cncc1Cl [Example 249, (R)-N-(cyclopropyl-methyl)-1-(6-(5-(1-(3,5-dichloropyridin-4-yl)ethoxy)-1H-indazol-3-yl)pyridazin-3-yl)-3-methylazetidin-3-amine]
– | 6.70 to 7.30 | < 6.00 | 7.30 to 10.00 | 1 to 50 | 1 to 50 | – | – | CC(C)=CCC1(N)CN(c2ccc(-c3n[nH]c4ccc(O[C@H](C)c5c(Cl)cncc5Cl)cc34)nn2)C1 [Example 378, (R)-1-(6-(5-(1-(3,5-dichloropyridin-4-yl)ethoxy)-1H-indazol-3-yl)pyridazin-3-yl)-3-(3-methylbut-2-en-1-yl)azetidin-3-amine]
– | 7.30 to 10.00 | 6.70 to 7.30 | 7.30 to 10.00 | 1 to 50 | 1 to 50 | – | – | C[C@@H](Oc1ccc2[nH]nc(-c3cnc(N4CC(N)(CC#N)C4)c(F)c3)c2c1)c1c(Cl)cncc1Cl [Example 241, (R)-2-(3-amino-1-(5-(5-(1-(3,5-dichloropyridin-4-yl)ethoxy)-1H-indazol-3-yl)-3-fluoropyridin-2-yl)azetidin-3-yl)acetonitrile]
– | 6.70 to 7.30 | < 6.00 | 7.30 to 10.00 | 1 to 50 | 1 to 50 | – | – | C[C@@H](Oc1ccc2[nH]nc(-c3ccc(N4CC(N)(CCS(C)(=O)=O)C4)nn3)c2c1)c1c(Cl)cncc1Cl [Example 294, (R)-1-(6-(5-(1-(3,5-dichloropyridin-4-yl)ethoxy)-1H-indazol-3-yl)pyridazin-3-yl)-3-(2-(methylsulfonyl)ethyl)azetidin-3-amine]
– | 6.70 to 7.30 | < 6.00 | 7.30 to 10.00 | 1 to 50 | 1 to 50 | – | – | CNC(=O)C1(N)CN(c2ccc(-c3n[nH]c4ccc(O[C@H](C)c5c(Cl)cncc5Cl)cc34)nn2)C1 [Example 300, (R)-3-amino-1-(6-(5-(1-(3,5-dichloropyridin-4-yl)ethoxy)-1H-indazol-3-yl)pyridazin-3-yl)-N-methylazetidine-3-carboxamide]
– | 7.30 to 10.00 | 6.70 to 7.30 | 7.30 to 10.00 | 1 to 50 | 1 to 50 | – | – | C[C@@H](Oc1ccc2[nH]nc(-c3cnc(N4CC(C)(NCCF)C4)c(F)c3)c2c1)c1c(Cl)cncc1Cl [Example 303, (R)-1-(5-(5-(1-(3,5-dichloropyridin-4-yl)ethoxy)-1H-indazol-3-y1)-3-fluoropyridin-2-yl)-N-(2-fluoroethyl)-3-methylazetidin-3-amine]
– | 6.70 to 7.30 | 6.70 to 7.30 | 7.30 to 10.00 | – | – | 1 to 50 | 1 to 50 | C[C@H](O)CC1(N)CN(c2ncc(-c3n[nH]c4ccc(O[C@H](C)c5c(Cl)cncc5Cl)cc34)cc2F)C1 [Example 384, (S)-1-(3-amino-1-(5-(5-((R)-1-(3,5-dichloropyridin-4-yl)ethoxy)-1H-indazol-3-yl)-3-fluoropyridin-2-yl)azetidin-3-yl)propan-2-ol]
– | 6.70 to 7.30 | 6.00 to 6.70 | 7.30 to 10.00 | – | – | 1 to 50 | 1 to 50 | C[C@@H](Oc1ccc2[nH]nc(-c3ccc(N4CC(N)(CS(C)(=O)=O)C4)nn3)c2c1)c1c(Cl)cncc1Cl [Example 387, (R)-1-(6-(5-(1-(3,5-dichloropyridin-4-yl)ethoxy)-1H-indazol-3-yl)pyridazin-3-yl)-3-((methylsulfonyl)meth-yl)azetidin-3-amine]
– | 7.30 to 10.00 | 6.70 to 7.30 | 7.30 to 10.00 | – | – | 1 to 50 | 1 to 50 | C[C@@H](Oc1ccc2[nH]nc(-c3cnc(N4CC(N)(c5ccnn5C)C4)c(F)c3)c2c1)c1c(Cl)cncc1Cl [Example 392, (R)-1-(5-(5-(1-(3,5-dichloropyridin-4-yl)ethoxy)-1H-indazol-3-yl)-3-fluoropyridin-2-yl)-3-(1-methyl-1H-pyrazol-5-yl)azetidin-3-amine]
– | 6.70 to 7.30 | 6.00 to 6.70 | 7.30 to 10.00 | 1 to 50 | 1 to 50 | – | – | CC(C)OCC1(N)CN(c2ccc(-c3n[nH]c4ccc(O[C@H](C)c5c(Cl)cncc5Cl)cc34)nn2)C1 [Example 377, (R)-1-(6-(5-(1-(3,5-dichloropyridin-4-yl)ethoxy)-1H-indazol-3-yl)pyridazin-3-yl)-3-(isopropoxy-methyl)a-zetidin-3-amine]
– | 6.70 to 7.30 | 6.70 to 7.30 | 7.30 to 10.00 | 1 to 50 | 1 to 50 | – | – | CCC1(N)CN(c2ccc(-c3n[nH]c4ccc(O[C@H](C)c5c(Cl)cncc5Cl)cc34)nn2)C1 [Example 299, (R)-1-(6-(5-(1-(3,5-Dichloropyridin-4-yl)ethoxy)-1H-indazol-3-yl)pyridazin-3-yl)-3-ethylazetidin-3-amine]
– | 6.70 to 7.30 | 6.00 to 6.70 | 7.30 to 10.00 | 1 to 50 | 1 to 50 | – | – | COCC1(N)CN(c2ccc(-c3n[nH]c4ccc(O[C@H](C)c5c(Cl)cncc5Cl)cc34)nn2)C1 [Example 376, (R)-1-(6-(5-(1-(3,5-dichloropyridin-4-yl)ethoxy)-1H-indazol-3-yl)pyridazin-3-yl)-3-(methoxy-methyl)aze-tidin-3-amine]
– | 7.30 to 10.00 | 6.70 to 7.30 | 7.30 to 10.00 | 1 to 50 | 1 to 50 | – | – | C[C@@H](Oc1ccc2[nH]nc(-c3ccc(N4CC(N)(C(=O)N(C)C)C4)nn3)c2c1)c1c(Cl)cncc1Cl [Example 301, (R)-3-Amino-1-(6-(5-(1-(3,5-dichloropyridin-4-yl)ethoxy)-1H-indazol-3-yl)pyridazin-3-yl)-N,N-dimethylazetidine-3-carboxamide]
– | 7.30 to 10.00 | 6.70 to 7.30 | 7.30 to 10.00 | – | – | 1 to 50 | 1 to 50 | C[C@@H](Oc1ccc2[nH]nc(-c3ccc(N4CCC(N)(CS(C)(=O)=O)CC4)nn3)c2c1)c1c(Cl)cncc1Cl [Example 386, (R)-1-(6-(5-(1-(3,5-dichloropyridin-4-yl)ethoxy)-1H-indazol-3-yl)pyridazin-3-yl)-4-((methylsulfonyl)methyl)piperidin-4-amine]
– | 6.70 to 7.30 | 6.00 to 6.70 | 7.30 to 10.00 | 1 to 50 | 1 to 50 | – | – | C[C@@H](Oc1ccc2[nH]nc(-c3ccc(N4CC(N)(Cc5ccn(C)n5)C4)nn3)c2c1)c1c(Cl)cncc1Cl [Example 306, (R)-1-(6-(5-(1-(3,5-dichloropyridin-4-yl)ethoxy)-1H-indazol-3-yl)pyridazin-3-yl)-3-((1-methyl-1H-pyrazol-3-yl)methyl)azetidin-3-amine]
– | 7.30 to 10.00 | 7.30 to 10.00 | 7.30 to 10.00 | 1 to 50 | 1 to 50 | – | – | C[C@@H](Oc1ccc2[nH]nc(-c3ccc(N4CC(C)(NC(=O)CN(C)C)C4)nn3)c2c1)c1c(Cl)cncc1Cl [Example 297, (R)—N-(1-(6-(5-(1-(3,5-dichloropyridin-4-yl)ethoxy)-1H-indazol-3-yl)pyridazin-3-yl)-3-methylazetidin-3-yl)-2-(dimethylamino)acetamide]
